This assay deals with HT-29 cells. The assay can be described thus: Cell necrosis inhibitory activity under necroptosis-inducing conditions (TNF-α, Z-VAD-FMK, LCL161) in HT-29 cells, Cell Titer-Glo. The settings on record: Homo sapiens, 100 ng/mL TNF-α + 25 μM Z-VAD-FMK + Smac mimetic LCL161, 24 hours, cell viability. It is filed as cell-based. The method, then: To evaluate the cell necrosis inhibitory activity of the compound according to the present invention, an experiment was conducted as follows.
To evaluate the efficacy of inhibiting cell necrosis under TNF-α-mediated cell death-inducing conditions, a HT-29 cell line (Korean Cell Line Bank Accession No. #30038) was cultured in RPMI-1640 (HyClone #SH3027.01) medium containing 10% fetal bovine serum (FBS) and 1% penicillin/streptomycin to analyze cell viability. More specifically, for testing, the cell line was seeded in a 96-well flat bottom plate (Corning #3903) at a concentration of 10,000 cells/well and incubated at 37° C. under a 5% CO2 condition for 24 hours. Each well was treated with 100 ng/mL TNF-α, 25 μM pan-caspase inhibitor (Z-VAD-FMK, Selleckchem #S8102), and 10 µM Smac mimetic LCL161 (Selleckchem #S7009) and allowed to react for 10 minutes. The compounds of Examples were treated at 11 concentrations (the highest concentration being 0.1 μM or 1 μM) with a 3-fold concentration gradient, and as a control, dimethyl sulfoxide (DMSO) was treated at a concentration of 0.05% (v/v), which is the same as those when the compounds were treated. The treated cells were incubated for 24 hours. To confirm the degree of cell viability, 100 μL of Cell Titer-Glo (Promega #G7573) was added to the medium of the cultured cells and cultured for additional 10 minutes, and then luminescence was measured using a microplate reader. Based on the […] of control cells that were not treated with the compound, the degree of cell necrosis inhibitory activity was calculated according to the treatment concentration of each compound. Here, the concentration at which the cell necrosis inhibitory activity was 50% was determined as an EC50 (nM) value and calculated using Prism (ver. 8.4.3 #GraphPad) software.
(In ATP-based viability assays light output follows the ATP content of the culture.)

Regarding `CNC(=O)c1n[nH]c2cc(-c3ccc(OC)c(NC(=O)N4OCC[C@H]4c4ccccc4)c3)ccc12` [Example 24, (S)-N-(2-methoxy-5-(3-(methylcarbamoyl)-1H-indazol-6-yl)phenyl)-3-phenylisoxazolidine-2-carboxamide], the EC50 – broadly, the concentration giving half of the maximal effect – came to 0.4 nM.
The value for `CC(=O)Nc1cn2nc(-c3cnc(C)c(NC(=O)N4OCC[C@H]4c4ccccc4)c3)ccc2n1` [Example 11, (S)-N-(5-(2-acetamidoimidazo[1,2-b]pyridazin-6-yl)-2-methylpyridin-3-yl)-3-phenylisoxazolidine-2-carboxamide] was 0.9 nM; that for `Cc1ccc(-c2cc3scnc3cn2)cc1NC(=O)N1OCC[C@H]1c1ccccc1` [Example 130, (S)-N-(2-methyl-5-(thiazolo[4,5-c]pyridin-6-yl)phenyl)-3-phenylisoxazolidine-2-carboxamide] was 1.4 nM; that for `Cc1ccc(-c2ccn3nc(N)nc3c2)cc1NC(=O)N1OCC[C@H]1c1cccc(F)c1` [Example 62, (S)-N-(5-(2-amino-[1,2,4]triazolo[1,5-a]pyridin-7-yl)-2-methylphenyl)-3-(3-fluorophenyl)isoxazolidine-2-carboxamide] was 0.2 nM.
Take `Cc1ncc(-c2ccc3nc(N)nn3c2)cc1NC(=O)N1OCC[C@H]1c1ccccc1` [Example 33, (S)-N-(5-(2-amino-[1,2,4]triazolo[1,5-a]pyridin-6-yl)-2-methylpyridin-3-yl)-3-phenylisoxazolidine-2-carboxamide]: the EC50 came to 1.2 nM.
The value for `CC(=O)Nc1cn2nc(-c3cccc(NC(=O)N4OCC[C@H]4c4ccccc4)c3)ccc2n1` [Example 1, (S)-N-(3-(2-acetamidoimidazo[1,2-b]pyridazin-6-yl)phenyl)-3-phenylisoxazolidine-2-carboxamide] was 0.9 nM; that for `Cc1ncc(-c2ccc3nc(NC(=O)C4CC4)sc3c2)cc1NC(=O)N1OCC[C@H]1c1ccccc1` [Example 29, (S)-N-(5-(2-(cyclopropanecarboxamido)benzo[d]thiazol-6-yl)-2-methylpyridin-3-yl)-3-phenylisoxazolidine-2-carboxamide] was 0.1 nM.
For `COc1ccc(-c2ccc3nc(NC(C)=O)oc3c2)cc1NC(=O)N1OCC[C@H]1c1ccccc1` [Example 16, (S)-N-(5-(2-acetamidobenzo[d]oxazol-6-yl)-2-methoxyphenyl)-3-phenylisoxazolidine-2-carboxamide], the EC50 turned out to be 4.9 nM.
In the case of `COc1ncc(-c2ccc3c(N)ncnn23)cc1NC(=O)N1OCC[C@H]1c1ccccc1` [Example 99, (S)-N-(5-(4-aminopyrrolo[2,1-f][1,2,4]triazin-7-yl)-2-methoxypyridin-3-yl)-3-phenylisoxazolidine-2-carboxamide], the EC50 was determined as 8.2 nM.
The value for `COc1cccc([C@@H]2CCON2C(=O)Nc2cc(-c3ccc4nc(N)nn4c3)cnc2C)c1` [Example 45, (S)-N-(5-(2-amino-[1,2,4]triazolo[1,5-a]pyridin-6-yl)-2-methylpyridin-3-yl)-3-(3-methoxyphenyl)isoxazolidine-2-carboxamide] was 4.6 nM.
Consider `Cc1ccc(-c2ccn3nc(N)cc3c2)cc1NC(=O)N1Oc2ccccc2[C@H]1c1ccccc1` [Example 139, (R)-N-(5-(2-aminopyrazolo[1,5-a]pyridin-5-yl)-2-methylphenyl)-3-phenylbenzo[d]isoxazole-2(3H)-carboxamide], for which the EC50 was found to be 2.2 nM.
The value for `COc1ccc(-c2ccn3nc(N)nc3c2)c(F)c1NC(=O)N1OCC[C@H]1c1ccccc1` [Example 103, (S)-N-(3-(2-amino-[1,2,4]triazolo[1,5-a]pyridin-7-yl)-2-fluoro-6-methoxyphenyl)-3-phenylisoxazolidine-2-carboxamide] was 15.6 nM; that for `Cc1ncc(-c2ccc3nc(NC(=O)C4CC4)nn3c2)cc1NC(=O)N1OCC[C@H]1c1ccccc1` [Example 36, (S)-N-(5-(2-(cyclopropanecarboxamido)-[1,2,4]triazolo[1,5-a]pyridin-6-yl)-2-methylpyridin-3-yl)-3-phenylisoxazolidine-2-carboxamide] was 0.6 nM; that for `CC(=O)Nc1nc2ccc(-c3cnc(C)c(NC(=O)N4OCC[C@H]4c4ccccc4)c3)cn2n1` [Example 35, (S)-N-(5-(2-acetamido-[1,2,4]triazolo[1,5-a]pyridin-6-yl)-2-methylpyridin-3-yl)-3-phenylisoxazolidine-2-carboxamide] was 3.2 nM.
The value for `COc1ncc(-c2ccc3nnn(C(C)C)c3c2)cc1NC(=O)N1OCC[C@H]1c1ccccc1` [Example 12, (S)-N-(5-(1-isopropyl-1H-benzo[d][1,2,3]triazol-6-yl)-2-methoxypyridin-3-yl)-3-phenylisoxazolidine-2-carboxamide] was 13.7 nM; that for `O=C(Nc1nc2ccc(-c3cccc(NC(=O)N4OCC[C@H]4c4ccccc4)c3)cc2s1)C1CC1` [Example 25, (S)-N-(3-(2-(cyclopropanecarboxamido)benzo[d]thiazol-6-yl)phenyl)-3-phenylisoxazolidine-2-carboxamide] was 0.2 nM; that for `COc1ncc(-c2ccc3nc(N)nn3c2)cc1NC(=O)N1OCC[C@H]1c1cc(F)cc(F)c1` [Example 57, (S)-N-(5-(2-amino-[1,2,4]triazolo[1,5-a]pyridin-6-yl)-2-methoxypyridin-3-yl)-3-(3,5-difluorophenyl)isoxazolidine-2-carboxamide] was 4.4 nM.
The value for `Cc1ccc(-c2ccc3nccn3n2)cc1NC(=O)N1OCC[C@H]1c1ccccc1` [Example 112, (S)-N-(5-(imidazo[1,2-b]pyridazin-6-yl)-2-methylphenyl)-3-phenylisoxazolidine-2-carboxamide] was 3.3 nM; that for `Cc1ccc(-c2ccn3nc(N)nc3c2)cc1NC(=O)N1OCC[C@H]1c1ccc(F)cc1` [Example 64, (S)-N-(5-(2-amino-[1,2,4]triazolo[1,5-a]pyridin-7-yl)-2-methylphenyl)-3-(4-fluorophenyl)isoxazolidine-2-carboxamide] was 0.2 nM.
With `Cc1ncc(-c2ccn3nc(N)nc3c2)cc1NC(=O)N1OCC[C@H]1c1ccc(C#N)cc1` [Example 70, (S)-N-(5-(2-amino-[1,2,4]triazolo[1,5-a]pyridin-7-yl)-2-methylpyridin-3-yl)-3-(4-cyanophenyl)isoxazolidine-2-carboxamide], the EC50 was determined as 5.2 nM.
The value for `COc1ncc(-c2ccc3nc(N)nn3c2)cc1NC(=O)N1OCC[C@H]1c1cccc(F)c1` [Example 58, (S)-N-(5-(2-amino-[1,2,4]triazolo[1,5-a]pyridin-6-yl)-2-methoxypyridin-3-yl)-3-(3-fluorophenyl)isoxazolidine-2-carboxamide] was 3.9 nM; that for `Nc1nc2cc(-c3ccc(F)c(NC(=O)N4OCC[C@H]4c4ccccc4)c3)ccn2n1` [Example 123, (S)-N-(5-(2-amino-[1,2,4]triazolo[1,5-a]pyridin-7-yl)-2-fluorophenyl)-3-phenylisoxazolidine-2-carboxamide] was 0.3 nM.
Regarding `Cc1ncc(-c2ccn3nc(NC(=O)C4CC4)nc3c2)cc1NC(=O)N1OCC[C@H]1c1ccccc1` [Example 48, (S)-N-(5-(2-(cyclopropanecarboxamido)-[1,2,4]triazolo[1,5-a]pyridin-7-yl)-2-methylpyridin-3-yl)-3-phenylisoxazolidine-2-carboxamide], the EC50 was 0.4 nM.
The value for `COc1ncc(-c2ccn3nc(N)nc3c2)cc1NC(=O)N1OCC[C@H]1c1cccc(F)c1` [Example 53, (S)-N-(5-(2-amino-[1,2,4]triazolo[1,5-a]pyridin-7-yl)-2-methoxypyridin-3-yl)-3-(3-fluorophenyl)isoxazolidine-2-carboxamide] was 0.5 nM; that for `Nc1nc2ccc(-c3ccc(F)c(NC(=O)N4OCC[C@H]4c4ccccc4)c3F)cc2s1` [Example 132, (S)-N-(3-(2-aminobenzo[d]thiazol-6-yl)-2,6-difluorophenyl)-3-phenylisoxazolidine-2-carboxamide] was 8.1 nM; that for `Cc1ccc(-c2ccc3ncc(C#N)n3c2)cc1NC(=O)N1OCC[C@H]1c1ccccc1` [Example 114, (S)-N-(5-(3-cyanoimidazo[1,2-a]pyridin-6-yl)-2-methylphenyl)-3-phenylisoxazolidine-2-carboxamide] was 1.9 nM.
As for `Cc1ccc(-c2ccn3nc(N)cc3c2)cc1NC(=O)N1OCC[C@H]1c1ccccc1` [Example 126, (S)-N-(5-(2-aminopyrazolo[1,5-a]pyridin-5-yl)-2-methylphenyl)-3-phenylisoxazolidine-2-carboxamide], the EC50 was 0.4 nM.
The value for `COc1ncc(-c2ccn3nc(N)nc3c2)cc1NC(=O)N1OCC[C@H]1c1cc(F)cc(F)c1` [Example 54, (S)-N-(5-(2-amino-[1,2,4]triazolo[1,5-a]pyridin-7-yl)-2-methoxypyridin-3-yl)-3-(3,5-difluorophenyl)isoxazolidine-2-carboxamide] was 0.4 nM.

The values are drawn from patent US20250019373A1, “ARYL OR HETEROARYL DERIVATIVE, AND PHARMACEUTICAL COMPOSITION COMPRISING SAME AS ACTIVE INGREDIENT FOR PREVENTION OR TREATMENT OF KINASE-RELATED DISEASES” (VORONOI INC., priority 2021, published 2025).
